We go through two molecules from US11931340B2, “Use of sublingual dexmedetomidine for the treatment of agitation” (BioXcel Therapeutics, Inc., priority 2016, dated 2024).

For series [1] the following is noted: rat, in vivo. On the procedure:
Objective: To estimate Dexmedetomidine levels in rat plasma samples obtained after dosing animals via intravenous and sublingual routes at doses of 0.5, 1, 1.5 and 3 μg/kg.
Blood was collected under mild isoflurane anesthesia from the retro-orbital plexus at 0, 5, 15, 30, 60 and 120 minutes post dosing. Plasma was separated and stored at −80° C. until Dexmedetomidine concentration was analyzed.
Analytical Methods: Samples were analysed by using Agilent 1290 Infinity II HPLC system coupled to AB Sciex Triple Quad instrument (API-5000). Chromatographic separation was done using Agilent Zorbax Eclipse plus C18 column (50*2.1 mm, 1.8 μm) in gradient mode. The mobile phase consisted of 10 mM Ammonium Formate with pH 3.5 (Mobile phase A) and 100% Acetonitrile (Mobile phase B). The column temperature was 40° C. and flow rate was 0.35 mL/min. The MS instrument was operated in the positive mode (ESI+). For analysis, 2 μL of sample was injected into the LC-MS/MS instrument. Auto sampler temperature was 7° C.
WCX SPE 96 well plate was used for sample preparation. 50 μl of plasma sample was used for extraction. Along with study samples, one set of linearity and two sets of quality controls (QC) were also processed.
Sample pretreatment: To 50 μl of plasma, 10 μl of tolbutamide working solution was added (Tolbutamide 250 ng/ml). After mixing, […], of buffer solution (10 mM Ammonium Formate pH 3.5) was added. Contents were vortex mixed and loaded to preconditioned SPE plate.
After placing the cartridges in the negative pressure SPE unit, they were conditioned by passing 200 μl of 100% methanol followed by 200 μl of water. The pretreated plasma samples were then loaded to the pre-conditioned cartridges.
After loading pretreated plasma samples, cartridges were washed with 100 μl of 0.1% ammonia solution. Finally, bound analyte was eluted with 50 μl of 0.1% formic acid in acetonitrile. This step was repeated twice for complete elution. Final eluent volume was 100 μL. To 100 μL of eluent, 50 μL of 10 mM ammonium formate (pH 3.5) was added samples were vortex mixed and transferred to a 96-well HPLC sample plate (Agilent) and submitted for LC-MS/MS analysis. For LC-MS/MS analysis, 2 μL of sample was injected. Calibration standards and QCs were processed the same way as done for study samples.
The calibration curve was fitted by linear regression. The concentrations in the QC and test samples (pg/mL) were obtained from the Analyst software based on the calibration curve. […] 2) The correlation coefficient (r) of the calibration curve must be greater than or equal to 0.99. 3) At least two-thirds (4 out of 6) QC samples must be within ±20% relative error (accuracy)

Series [2] has as its system rat ‘resident-intruder’ model of agitation or aggression. As to the kind of experiment: Rat resident-intruder model of agitation or aggression. The format is in vivo. As to conditions: for sublingual vs intravenous route: duration of the behavioral indices of aggression and agitation: doses of 1 and 1.5 μg/kg, student t-test. The text has this: The resident-intruder model is an established preclinical model of aggression and agitation, and allows spontaneous and natural expression of both offensive aggression/agitation and defensive behavior in laboratory rodents in a semi natural laboratory setting.
Animals: 12-13 week old male Wistar rats weighing 380-400 g were used as resident males. 7-8 weeks old male rats weighing 280-300 g were used as the “intruder”. Resident rats were housed with female rats for 8 days to establish territoriality. The intruder rats were housed in groups of 3 with other male rats of similar age/body weight. All animals were maintained in a controlled environment with 22±3° C. temperature, 50±20% humidity, a light/dark cycle of 12 hours each and 15-20 fresh air changes per hour and had access to food and water ad-libitum. All animal experiments were conducted in accordance with the guidelines of the Committee for the Purpose of Control and Supervision of Experiments on Animals (CPCSEA), Government of India the Association for Assessment and Accreditation of Laboratory Animal Care international (AAALAC).
Dilutions were prepared fresh every day prior to dosing using 0.9% normal saline from the formulation 4 for the entire study.
Experimental Procedure: Following acclimatization for a period of 3-5 days, each resident male rat was housed with a female rat for 8 days. On day 8, basal aggression in the resident males was tested by exposing them to an “intruder rat” for 10 minutes. […] These animals were then randomized using body weight stratification method. […] Animals were housed with the female rat for an additional day. On day 9, the resident animal was paired with intruder animal of an appropriate bodyweight such that the body weight of the resident was always higher than the intruder. This was to facilitate dominant, aggressive behavior in the resident animals. After randomization, animals were assigned a permanent number. Cages were identified by cage cards indicating the study number, study code, group number, sex, dose, cage number and animal number details.
For sublingual dosing, the rats were held in one hand and using a blunt spatula the tongue was moved to one side of the mouth. […] Diazepam was used as a reference compound and was dosed intraperitoneally. Vehicle controls were treated with 0.9% saline administered sublingually or intravenously.
The behavior of the resident rat was recorded using an overhead video camera for 15 minutes and offline behavioral analysis was done using the Noldus Ethovision XT software. To distinguish the resident rat from the intruder rat in the video recording, the intruder rat was marked with non-toxic paint.
Statistical Analysis: Statistical analysis was performed using validated statistical software (GraphPad Prism 6). Data is represented as Mean±SEM. One-way ANOVA (analysis of variance) followed by “Dunnett's Multiple Comparison Test” at 95% confidence interval was applied for comparison of the relevant groups. p<0.05 was considered significant.

Each structure is given as a SMILES string. “Also recorded” adds a separate entry of the source. Where a name gives a salt, the structure may show the parent alone. Read-outs that look alike come from different tables or passages of the source.

Consider `Cc1cccc([C@H](C)c2cnc[nH]2)c1C` [Dexmedetomidine hydrochloride, (S)-4-[1-(2,3-Dimethylphenyl)ethyl]-3H-imidazole], for which the “Plasma concentrations between 15 to 30 min” value in series [1] is reported as 43±13.5 to 90±12.1. Further, the “effect of dose on plasma concentrations” value in series [1] is “dose-related effect on plasma concentrations”; in series [1] (iv) it was “dose-dependent effect on plasma concentrations”. Besides, the “plasma concentrations between 15 to 30 min” value in series [1] is given as 27±7.1-114±1.7. For the same molecule, in series [2] (administered sublingually or intravenously, doses used 0.5-3 μg/kg), the “doses that effectively reduced the behavioral indices of aggression and agitation without majorly impacting the neutral behaviors” value lay in the range of 1 to 1.5 µg/kg. Besides, in series [2] (conclusion, rat resident intruder model), the “various indices of agitation and aggression” value is “effectively reduces various indices of agitation and aggression”. The “sublingual vs intravenous route: duration of the behavioral indices of aggression and agitation” value in series [2] is given as “correlates with intravenously administered Dexmedetomidine hydrochloride”; in series [2] (listed as dexmedetomidine hydrochloride), “No significant differences (i.e. similar effect via sublingual”. In series [2] (intravenous, 3 μg/kg, FIG. 2B), the “latency to attack the intruder rat, significance vs vehicle controls” value is reported as “significant compared to vehicle controls”. The “neutral behavior: immobile/quiet time” value in series [2] (intravenous, 3 μg/kg, FIG. 3F) is given as “significantly increased the immobile/quiet time”. Moreover, the “neutral behaviors: grooming and exploration compared to vehicle controls” value was “did not significantly affect grooming and exploration” in series [2] (intravenous, 0.5-3 μg/kg, except at a dose of 3 μg/kg); “No significant changes” in series [2] (sublingual, 0.5-3 μg/kg, except exploration at 1.5 and 3 μg/kg, FIGS. 3A and 3B). Further, the “indices of aggressive and agitated behaviors” value in series [2] (intravenous, 0.5-3 μg/kg, FIG. 1C, 1D) was “reduced all the indices of aggressive and agitated behaviors”. In addition, the “anogenital sniffing, biting and attacking compared to vehicle controls” value in series [2] (intravenous, doses above 0.5 μg/kg, FIG. 1C, 1D) was “significant reduction”. In addition, in series [2] (prior treatment, dose related manner, route not stated), the “latency to attack the intruder rat compared to the vehicle control group” value was “significant increase in the latency to attack the intruder rat”. Further, the “neutral behavior: exploration compared to vehicle controls” value in series [2] (sublingual, 1.5 μg/kg & 3 μg/kg, FIGS. 3A and 3B) was “reduction in exploration”. Moreover, the “frequency and duration of aggressive and agitated behaviors (anogenital sniffing, chasing, biting, attacking)” value in series [2] (sublingual, 0.5-3 μg/kg, 15 minutes prior to testing, FIG. 1A, 1B) is “reduced the frequency and duration of these behaviors in a dose related manner; also recorded: dose related reduction”. Also, the “latency to attack the intruder rat” value in series [2] (sublingual, 0.5-3 μg/kg, dose related, FIG. 2A) was “increase in the latency to attack the intruder rat”. Also, in series [2] (sublingual, 0.5-3 μg/kg, FIG. 1A, 1B), the “chasing and attacking compared to vehicle control group” value is “Significant reduction”. For the same molecule, in series [2] (sublingual, 0.5-3 μg/kg, FIG. 3C), the “neutral behavior: immobile/quiet time compared to vehicle controls” value is given as “no significant effect”. Further, the “neutral behavior of animals” value in series [2] (sublingually administered) is on record as “No changes were observed”.
For `CN1C(=O)CN=C(c2ccccc2)c2cc(Cl)ccc21` [Diazepam], the “indices of aggressive and agitated behaviors” value in series [2] (3 mg/kg, i.p., FIG. 1A-1D) is “significant reduction in all the indices of aggressive and agitated behaviors”. For the same molecule, the “attacking behavior / latency to attack” value in series [2] (3 mg/kg, i.p., FIGS. 2A and 2B) is “complete lack of attacking behavior”. The “frequency and duration of neutral behaviors” value in series [2] (3 mg/kg, ip) is “significantly reduced the frequency and duration of all neutral behaviors”.
